Source: the NIST ThermoML archive (doi:10.1016/j.jct.2016.06.007)

Test: mn = molality of the nth substance listed, in mol/kg
Settings: Liquid, m1 = 7.377; for viscosity: Falling or rolling sphere viscometry; for mass density: Vibrating tube method

CN(CCO)CCO [N-methyldiethanolamine] + O
Settings | mass density [kg/m3] | viscosity [mPa·s]
313.15 K, 6.3 kPa | 1031.4 | 4.23
328.15 K, 13.7 kPa | 1021.6 | 2.82
343.15 K, 27.4 kPa | 1009.7 | 1.83
